Test results reported in patent publication US6414000B1, “Substituted diphenyl oxazolin derivatives with insecticidal effect” (Bayer Aktiengesellschaft, priority 1997, dated 2002).
Marks after values point to notes of the source that are not given here.

How the values were obtained:
[1] = logP, n-octanol/water partition coefficient by reversed phase HPLC; format: physicochemical; conditions: reversed phase HPLC using H2O/CH3CN; for logP (A isomer): A isomer (possible geometric isomer); for logP (B isomer): B isomer (possible geometric isomer)
[2] = test system: caterpillars of the owlet moth (Spodoptera frugiperda); experiment: Spodoptera frugiperda Test; format: in vivo; conditions: active compound concentration 0.0001%, after 7 days, dipped cabbage leaves
Method: Spodoptera frugiperda Test
(§1) Solvent: 7 parts by weight of dimethylformamide
(§2) Emulsifier: 1 part by weight of alkylaryl polyglycol ether
(§3) To produce a suitable preparation of active compound, 1 part by weight of active compound is mixed with the stated amount of solvent and the stated amount of emulsifier, and the concentrate is diluted with water to the desired concentration.
Cabbage leaves (Brassica oleracea) are treated by being dipped into the active compound preparation of the desired concentration and populated with caterpillars of the owlet moth (Spodoptera frugiperda) while the leaves are still moist.
(§4) After the desired period of time, the activity in % is determined. 100% means that all caterpillars have been killed; 0% means that none of the caterpillars have been killed.

[3] = test system: larvae of the mustard beetle (Phaedon cochleariae); experiment: Phaedon Larvae Test; format: in vivo; conditions: after 7 days, dipped cabbage leaves
Method: as §1, §2, §3
After the desired period of time, the kill in % is determined. 100% means that all the beetle larvae have been killed; 0% means that none of the beetle larvae have been killed.

[4] = test system: caterpillars of the cotton bollworm (Heliothis armigera); experiment: Heliothis armigera Test; format: in vivo; conditions: active compound concentration 0.00016%, after 6 days, dipped soy shoots
Method: as §1, §2, §3
Soy shoots (Glycine max) are treated by being dipped into the active compound preparation of the desired concentration and are populated with caterpillars of the cotton bollworm (Heliothis armigera), while the leaves are still moist.
After the desired period of time, the activity in % is determined. 100% means that all the caterpillars have been killed; 0% means that none of the caterpillars have been killed.

[5] = test system: caterpillars of the diamond back moth (Plutella xylostella); experiment: Plutella Test; format: in vivo; conditions: active compound concentration 0.000032%, after 7 days, dipped cabbage leaves
Method: as §1, §2, §3
Cabbage leaves (Brassica oleracea) are treated by being dipped into the active compound preparation of the desired concentration and are infested with caterpillars of the diamond back moth (Plutella xylostella), while the leaves are still moist.
as §4

[6] = test system: caterpillars of the owlet moth (Spodoptera exigua); experiment: Spodoptera exigua Test; format: in vivo; conditions: active compound concentration 0.000032%, after 6 days, dipped cabbage leaves
Method: as §1, §2, §3
Cabbage leaves (Brassica oleracea) are treated by being dipped into the active compound preparation of the desired concentration and populated with caterpillars of the owlet moth (Spodoptera exigua), while the leaves are still moist.
as §4

[7] = test system: greenhouse red spider mite (Tetranychus urticae); experiment: Tetranychus Test (OP resistant/spray treatment); format: in vivo; conditions: active compound concentration 0.000032%, after 14 days, sprayed bean plants
Method: Tetranychus Test (OP resistant/spray treatment)
Solvent: 3 parts by weight of dimethylformamide
as §2, §3
Bean plants (Phaseolus vulgaris) which are heavily infested by all stages of the greenhouse red spider mite (Tetranychus urticae) are sprayed with an active compound preparation of the desired concentration.
After the desired period of time, the activity in % is determined. 100% means that all the spider mites have been killed; 0% means that none of the spider mites have been killed.

Lucilia cuprina larvae = experiment: Blowfly Larvae Test/development-inhibitory Action; format: in vivo; conditions: active compound concentration 100 ppm
Method: Blowfly Larvae Test/development-inhibitory Action
Test animals: Lucilia cuprina larvae
Solvent: Dimethyl sulphoxide
20 m of active compound are dissolved in 1 ml of dimethyl sulphoxide, and lower concentrations are prepared by dilution with distilled H2O .
About 20 Lucilia cuprina larvae are placed in a test tube containing about 1 cm^3 of horsemeat and 0.5 ml of the active compound preparation to be tested. The activity of the active compound preparation is determined after 24 hours and 48 hours. The test tubes are transferred into beakers whose bottom is covered with sand. After a further 2 days, the test tubes are removed and the pupae are counted.
The activity of the active compound preparation is judged by the number of flies which have hatched after 1.5 times the development period of an untreated control. 100% means that no flies have hatched; 0% means that all flies have hatched normally.

[8] = active compound concentration 0.01%

Row | SMILES | logP [1] | logP (A isomer) [1] | logP (B isomer) [1] | further results
1 | CC(C)COc1ccc(-c2ccc(C3COC(c4ccccc4F)=N3)cc2)cc1 (centres unmarked) [Example 108] | 5.34 |  |  | 
2 | CON=C(C)C(C)Oc1ccc(-c2ccc(C3COC(c4ccccc4Br)=N3)cc2)cc1 (mixture of isomers) [Example 92] |  | 5.08 | 5.18 | 
3 | C#CC(C)Oc1ccc(-c2ccc(C3COC(c4ccccc4Cl)=N3)cc2)cc1 (centres unmarked) [Example 37] | 4.49 |  |  | 
4 | CCON=CC(C)(C)Oc1ccc(-c2ccc(C3COC(c4c(F)cccc4F)=N3)cc2)cc1 (centres unmarked) [Example 53] | 5.00 |  |  | 
5 | CC(C)Oc1ccc(-c2ccc(C3COC(c4ccccc4F)=N3)cc2)cc1 (centres unmarked) [Example 107] | 4.65 |  |  | 
6 | CC(=O)C(C)Oc1ccc(-c2ccc(C3COC(c4ccccc4F)=N3)cc2)cc1 (centres unmarked) [Example 100] | 3.79 |  |  | 
7 | CC(=NOC(C)C)C(C)(C)Oc1ccc(-c2ccc(C3COC(c4c(F)cccc4Cl)=N3)cc2)cc1 (centres unmarked) [Example 4] | 6.30 |  |  | kill [2]: 100%; kill ([3]; active compound concentration 0.00001%): 100%
8 | CC(COc1ccc(-c2ccc(C3COC(c4c(F)cccc4Cl)=N3)cc2)cc1)=NOCC(C)C (mixture of isomers) [Example 54] |  | 5.85 | 5.76 | 
9 | CCON=CCOc1ccc(-c2ccc(C3COC(c4c(F)cccc4F)=N3)cc2)cc1 (mixture of isomers) [Example 16] |  | 4.35 (A isomer)* | 4.53 (B isomer)* | 
10 | CON=CCOc1ccc(-c2ccc(C3COC(c4c(F)cccc4F)=N3)cc2)cc1Cl (centres unmarked) [Example 114] | 4.33 |  |  | 
11 | CON=CC(C)(C)Oc1ccc(-c2ccc(C3COC(c4c(F)cccc4F)=N3)cc2)cc1 (centres unmarked) [Example 57] | 4.62 |  |  | 
12 | CCON=CCOc1ccc(-c2ccc(C3COC(c4ccccc4Cl)=N3)cc2)cc1Cl (centres unmarked) [Example 117] | 5.08 |  |  | 
13 | CCON=C(COc1ccc(-c2ccc(C3COC(c4c(F)cccc4F)=N3)cc2)cc1)C(C)(C)C=C(Cl)Cl (mixture of isomers) [Example 42] |  | 6.48 | 6.37 | 
14 | CCON=CCOc1ccc(-c2ccc(C3COC(c4c(F)cccc4F)=N3)cc2)cc1Cl (centres unmarked) [Example 115] | 4.71 |  |  | 
15 | CC(O)C(C)Oc1ccc(-c2ccc(C3COC(c4ccccc4Br)=N3)cc2)cc1 (centres unmarked) [Example 91] | 3.74 |  |  | 
16 | Cc1cc(-c2ccc(C3COC(c4c(F)cccc4F)=N3)cc2)ccc1OCC(F)(F)F (centres unmarked) [Example 119] | 4.80 |  |  | 
17 | CCC(C)ON=C(C)COc1ccc(-c2ccc(C3COC(c4c(F)cccc4Cl)=N3)cc2)cc1 (mixture of isomers) [Example 3] |  | 5.90 (A isomer)* | 5.81 (B isomer)* | kill [2]: 100%; kill [4]: 100%; kill [3, 8]: 100%; kill [5]: 100%
18 | Fc1cccc(F)c1C1=NC(c2ccc(-c3ccc(OCc4ccc(C(F)(F)F)cc4)cc3)cc2)CO1 (centres unmarked) [Example 1, 2-(2,6-difluorophenyl)-4-[4′-(4″-trifluoromethylbenzyl-oxy)-biphenyl-4-yl]-1,3-oxazoline] |  |  |  | kill [2]: 100%; kill [6]: 80%; kill [4]: 100%; kill [3, 8]: 100%; kill [7]: 98%; kill [5]: 85%

Row | SMILES | logP [1] | logP (A isomer) [1] | logP (B isomer) [1] | further results
19 | CC(C)Oc1ccc(-c2ccc(C3COC(c4ccccc4Br)=N3)cc2)cc1 (centres unmarked) [Example 5] |  |  |  | activity (development-inhibitory action, flies not hatched) (Lucilia cuprina larvae): 100%
20 | CC(C)(C=O)Oc1ccc(-c2ccc(C3COC(c4c(F)cccc4F)=N3)cc2)cc1 (centres unmarked) [Example 102] | 4.08 |  |  | 
21 | Cc1cc(-c2ccc(C3COC(c4c(F)cccc4OCC(F)(F)F)=N3)cc2)ccc1OCC(F)(F)F (centres unmarked) [Example 120] | 4.91 |  |  | 
22 | CCCCON=C(C)C(C)Oc1ccc(-c2ccc(C3COC(c4ccccc4Cl)=N3)cc2)cc1Cl (mixture of isomers) [Example 61] |  | 6.84 | 6.67 | 
23 | C#CC(C)Oc1ccc(-c2ccc(C3COC(c4c(F)cccc4F)=N3)cc2)cc1 (centres unmarked) [Example 36] | 4.15 |  |  | 
24 | CC(=NOCC(C)C)C(C)Oc1ccc(-c2ccc(C3COC(c4c(F)cccc4F)=N3)cc2)cc1 (mixture of isomers) [Example 51] |  | 5.93 | 5.79 | 
25 | CON=CCOc1ccc(-c2ccc(C3COC(c4ccccc4Cl)=N3)cc2)cc1Cl (centres unmarked) [Example 116] | 4.72 |  |  | 
26 | CCCCON=C(C)C(C)Oc1ccc(-c2ccc(C3COC(c4c(F)cccc4Cl)=N3)cc2)cc1 (mixture of isomers) [Example 49] |  | 6.23 | 6.09 | 
27 | CC(=O)C(C)Oc1ccc(-c2ccc(C3COC(c4ccccc4Br)=N3)cc2)cc1 (centres unmarked) [Example 68] | 4.13 |  |  | 
28 | CCCCON=C(C)C(C)Oc1ccc(-c2ccc(C3COC(c4c(F)cccc4F)=N3)cc2)cc1 (mixture of isomers) [Example 52] |  | 5.94 | 5.80 | 
29 | CON=CCOc1ccc(-c2ccc(C3COC(c4c(F)cccc4F)=N3)cc2)cc1 (mixture of isomers) [Example 8] |  | 3.97 (A isomer)* | 4.14 (B isomer)* | 
30 | CCON=CCOc1ccc(-c2ccc(C3COC(c4c(F)cccc4Cl)=N3)cc2)cc1 (centres unmarked) [Example 113] | 4.65 |  |  | 
31 | ClC1(Cl)CC1COc1ccc(-c2ccc(C3COC(c4ccccc4I)=N3)cc2)cc1 (centres unmarked) [Example 22] | 5.43 |  |  | 
32 | CCCCON=C(C)COc1ccc(-c2ccc(C3COC(c4c(F)cccc4F)=N3)cc2)cc1 (mixture of isomers) [Example 55] |  | 5.58 | 5.51 | 
33 | CON=CCOc1ccc(-c2ccc(C3COC(c4c(F)cccc4Cl)=N3)cc2)cc1 (centres unmarked) [Example 112] | 4.27 |  |  | 
34 | CCC(C)ON=C(C)COc1ccc(-c2ccc(C3COC(c4c(F)cccc4F)=N3)cc2)cc1 (mixture of isomers) [Example 56] |  | 5.61 | 5.54 | 
35 | CCCCON=C(C)C(C)Oc1ccc(-c2ccc(C3COC(c4c(F)cccc4F)=N3)cc2)cc1Cl (mixture of isomers) [Example 63] |  | 6.37 | 6.22 | 
